Source: ChEMBL document CHEMBL6114953, “De novo discovery of cyclic peptide inhibitors of IL-11 signaling” (Bioorg Med Chem, 2025)
Where a SMILES comes first, the peptide text is derived from it. Bridges are numbered along the chain shown (N, C = ends). [ ]: non-standard residue; d: D form. Nle = CCCC[C@H](N)C(=O)O

experiment: Inhibition of his-tagged recombinant human IL-11 (22 to 199 residues) expressed in HEK293 cells/biotinylated recombinant human IL-11Ralpha (24 to 370 residues) expressed in HEK293 cells incubated for 1 hr by AlphaLISA assay; assay type: cell-based

First: CC(C)C[C@@H]1NC(=O)CNC(=O)[C@H](Cc2ccccc2)NC(=O)[C@H](Cc2c[nH]c3ccccc23)NC(=O)[C@H](CCC(=O)O)NC(=O)[C@H](Cc2c[nH]c3ccccc23)NC(=O)[C@H]([C@@H](C)O)NC(=O)[C@@H]2CCCN2C(=O)[C@H](Cc2c[nH]cn2)NC(=O)[C@@H](NC(=O)[C@H](Cc2ccccc2)NC(=O)[C@H](CCC(=O)O)NC(=O)[C@@H](NC(=O)[C@@H](NC(=O)[C@H](CCC(=O)O)NC(=O)[C@H](C)N)[C@@H](C)O)C(C)C)CSSC[C@@H](C(N)=O)NC1=O (H-AETVEFCHPTWEWFGLC-NH2; disulfide 7-17)
Second: CC(C)C[C@@H]1NC(=O)[C@H](Cc2c[nH]c3ccccc23)NC(=O)[C@@H](NC(=O)[C@H](Cc2ccccc2)NC(=O)[C@H](CCC(=O)O)NC(=O)[C@@H](NC(=O)[C@@H](NC(=O)[C@H](CCC(=O)O)NC(=O)[C@H](C)N)[C@@H](C)O)C(C)C)CSSC[C@@H](C(N)=O)NC(=O)[C@H](CCC(N)=O)NC(=O)[C@H](CCC(=O)O)NC(=O)[C@H](Cc2c[nH]c3ccccc23)NC(=O)[C@H](Cc2c[nH]c3ccccc23)NC(=O)[C@H](CCC(N)=O)NC(=O)[C@H](Cc2ccccc2)NC(=O)[C@@H]2CCCN2C1=O (H-AETVEFCWLPFQWWEQC-NH2; disulfide 7-17)
The Ki of the first is 6.9-fold higher: 2400 nM for the first, 350 nM for the second.

First: CC[C@H](C)[C@@H]1NC(=O)[C@H](Cc2c[nH]cn2)NC(=O)[C@H](Cc2c[nH]cn2)NC(=O)[C@H](C)NC(=O)[C@@H](NC(=O)[C@H](Cc2ccccc2)NC(=O)[C@H](CCC(=O)O)NC(=O)[C@@H](NC(=O)[C@@H](NC(=O)[C@H](CCC(=O)O)NC(=O)[C@H](C)N)[C@@H](C)O)C(C)C)CSSC[C@@H](C(N)=O)NC(=O)[C@H](Cc2c[nH]c3ccccc23)NC(=O)[C@H](Cc2c[nH]c3ccccc23)NC(=O)[C@H](Cc2c[nH]c3ccccc23)NC(=O)[C@H](C)NC(=O)[C@H](Cc2ccc(O)cc2)NC1=O (H-AETVEFCAHHIYAWWWC-NH2; disulfide 7-17)
Second: CSCC[C@@H]1NC(=O)[C@H](Cc2c[nH]cn2)NC(=O)[C@H](CO)NC(=O)[C@@H](NC(=O)[C@H](Cc2c[nH]c3ccccc23)NC(=O)[C@H](Cc2ccc(O)cc2)NC(=O)[C@H](Cc2ccccc2)NC(=O)[C@H](CCC(=O)O)NC(=O)[C@@H](NC(=O)[C@@H](NC(=O)[C@H](CCC(=O)O)NC(=O)[C@H](C)N)[C@@H](C)O)C(C)C)CSSC[C@@H](C(=O)N[C@@H](Cc2c[nH]c3ccccc23)C(=O)N[C@@H](CCCNC(=N)N)C(N)=O)NC(=O)[C@H](C(C)C)NC(=O)[C@H]([C@@H](C)O)NC(=O)[C@H]([C@@H](C)O)NC(=O)[C@H](Cc2ccc(O)cc2)NC(=O)[C@H](Cc2ccc(O)cc2)NC1=O (H-AETVEFYWCSHMYYTTVCWR-NH2; disulfide 9-18)
The Ki of the first is 1.6-fold lower: 2400 nM for the first, 3900 nM for the second.

`CSCC[C@@H]1NC(=O)[C@H](Cc2c[nH]cn2)NC(=O)[C@H](CO)NC(=O)[C@@H](NC(=O)[C@H](Cc2c[nH]c3ccccc23)NC(=O)[C@H](Cc2ccc(O)cc2)NC(=O)[C@H](Cc2ccccc2)NC(=O)[C@H](CCC(N)=O)NC(=O)[C@@H](NC(=O)[C@@H](NC(=O)[C@H](CCC(N)=O)NC(=O)[C@H](C)N)[C@@H](C)O)C(C)C)CSSC[C@@H](C(=O)N[C@@H](Cc2c[nH]c3ccccc23)C(=O)N[C@@H](CCCNC(=N)N)C(N)=O)NC(=O)[C@H](C(C)C)NC(=O)[C@H]([C@@H](C)O)NC(=O)[C@H]([C@@H](C)O)NC(=O)[C@H](Cc2ccc(O)cc2)NC(=O)[C@H](Cc2ccc(O)cc2)NC1=O` (H-AQTVQFYWCSHMYYTTVCWR-NH2; disulfide 9-18) and `CCCC[C@@H]1NC(=O)[C@H](Cc2c[nH]cn2)NC(=O)[C@H](CO)NC(=O)[C@@H](NC(=O)[C@H](Cc2c[nH]c3ccccc23)NC(=O)[C@H](Cc2ccc(O)cc2)NC(=O)[C@H](Cc2ccccc2)NC(=O)[C@H](CCC(N)=O)NC(=O)[C@@H](NC(=O)[C@@H](NC(=O)[C@H](CCC(N)=O)NC(=O)[C@H](C)N)[C@@H](C)O)C(C)C)CSSC[C@@H](C(=O)N[C@@H](Cc2c[nH]c3ccccc23)C(=O)N[C@@H](CCCNC(=N)N)C(N)=O)NC(=O)[C@H](C(C)C)NC(=O)[C@H]([C@@H](C)O)NC(=O)[C@H]([C@@H](C)O)NC(=O)[C@H](Cc2ccc(O)cc2)NC(=O)[C@H](Cc2ccc(O)cc2)NC1=O` (H-AQTVQFYWCSH[Nle]YYTTVCWR-NH2; disulfide 9-18) are within 1.5-fold of each other in Ki: 180 nM for the first, 260 nM for the second.

Compared with `CSCC[C@@H]1NC(=O)[C@H](Cc2c[nH]cn2)NC(=O)[C@H](CO)NC(=O)[C@@H](NC(=O)[C@H](Cc2c[nH]c3ccccc23)NC(=O)[C@H](Cc2ccc(O)cc2)NC(=O)[C@H](Cc2ccccc2)NC(=O)[C@H](CCC(N)=O)NC(=O)[C@@H](NC(=O)[C@@H](NC(C)=O)[C@@H](C)O)C(C)C)CSSC[C@@H](C(=O)N[C@@H](Cc2c[nH]c3ccccc23)C(=O)N[C@@H](CCCNC(=N)N)C(N)=O)NC(=O)[C@H](C(C)C)NC(=O)[C@H]([C@@H](C)O)NC(=O)[C@H]([C@@H](C)O)NC(=O)[C@H](Cc2ccc(O)cc2)NC(=O)[C@H](Cc2ccc(O)cc2)NC1=O` (Ac-TVQFYWCSHMYYTTVCWR-NH2; disulfide 7-16), `CSCC[C@@H]1NC(=O)[C@H](Cc2c[nH]cn2)NC(=O)[C@H](CO)NC(=O)[C@@H](NC(=O)[C@H](Cc2c[nH]c3ccccc23)NC(=O)[C@H](Cc2ccc(O)cc2)NC(=O)[C@H](Cc2ccccc2)NC(=O)[C@H](CCC(N)=O)NC(C)=O)CSSC[C@@H](C(=O)N[C@@H](Cc2c[nH]c3ccccc23)C(=O)N[C@@H](CCCNC(=N)N)C(N)=O)NC(=O)[C@H](C(C)C)NC(=O)[C@H]([C@@H](C)O)NC(=O)[C@H]([C@@H](C)O)NC(=O)[C@H](Cc2ccc(O)cc2)NC(=O)[C@H](Cc2ccc(O)cc2)NC1=O` (Ac-QFYWCSHMYYTTVCWR-NH2; disulfide 5-14) is 3.3-fold lower in Ki: 900 nM for the first, 270 nM for the second.

Going from `CC(=O)NCC(=O)N[C@@H](Cc1c[nH]c2ccccc12)C(=O)N[C@H]1CSSC[C@@H](C(=O)N[C@@H](CC(C)C)C(=O)N[C@@H](CCCNC(=N)N)C(N)=O)NC(=O)[C@H](Cc2c[nH]c3ccccc23)NC(=O)[C@H](C)NC(=O)[C@H](CO)NC(=O)[C@H](Cc2ccc(O)cc2)NC(=O)[C@H](Cc2ccc(O)cc2)NC(=O)CNC(=O)[C@H](CCCCN)NC(=O)[C@H](Cc2c[nH]c3ccccc23)NC1=O` (Ac-GWCWKGYYSAWCLR-NH2; disulfide 3-12) to `CSCC[C@@H]1NC(=O)[C@H](Cc2c[nH]cn2)NC(=O)[C@H](CO)NC(=O)[C@@H](NC(=O)[C@H](Cc2c[nH]c3ccccc23)NC(C)=O)CSSC[C@@H](C(=O)N[C@@H](Cc2c[nH]c3ccccc23)C(=O)N[C@@H](CCCNC(=N)N)C(N)=O)NC(=O)[C@H](C(C)C)NC(=O)[C@H]([C@@H](C)O)NC(=O)[C@H]([C@@H](C)O)NC(=O)[C@H](Cc2ccc(O)cc2)NC(=O)[C@H](Cc2ccc(O)cc2)NC1=O` (Ac-WCSHMYYTTVCWR-NH2; disulfide 2-11), the Ki rises from 1100 nM to 3200 nM (2.9-fold). The first binds more tightly here.

For `CSCC[C@@H]1NC(=O)[C@H](Cc2c[nH]cn2)NC(=O)[C@H](CO)NC(=O)[C@@H](NC(=O)[C@H](Cc2c[nH]c3ccccc23)NC(=O)[C@H](Cc2ccc(O)cc2)NC(C)=O)CSSC[C@@H](C(N)=O)NC(=O)[C@H](C(C)C)NC(=O)[C@H]([C@@H](C)O)NC(=O)[C@H]([C@@H](C)O)NC(=O)[C@H](Cc2ccc(O)cc2)NC(=O)[C@H](Cc2ccc(O)cc2)NC1=O` (Ac-YWCSHMYYTTVC-NH2; disulfide 3-12), the Ki was > 28000 nM.
